Laboratory results published in publication PMC4800182 (Frontiers in Microbiology, 2016).
Structures can show the parent of a compound that is named as a salt.

What was measured:
[1] = test system: T1, rNanB; assay: Fluorescence-based NA assay with eight MUNANA concentrations (3.13 to 400 uM) at pH 6.5, enzymes diluted 1:10,000, stopped after 5 min, 4-MU release fitted to the Michaelis-Menten equation by non-linear regression.; assay type: biochemical; settings: n = 3
T1 construct: recombinant, expressed in E. coli from pET-28a (pTNB20566); C-terminal 6xHis tag; 699 amino acid residues
Experimental: (§1) Activity of 10-fold dilutions (1:1,000 to 1:100,000) of rNanA and rNanB was determined with a fluorescence-based NA assay (FL assay) using the substrate 2-(4-methylumbelliferyl)-α-D-N-acetylneuraminic acid sodium salt hydrate (MUNANA, Sigma–Aldrich GmbH) as published ([Richter et al., 2015]). The activity of rNanB was additionally tested at pH 5. Relative FL units (RFU) were read using the microplate reader FLUOstar Omega (BMG Labtech GmbH, Ortenberg, Germany) and converted to 4-MU concentration (Sigma–Aldrich GmbH) according to the 4-MU standard curve (Supplementary Figure 1). Velocity (μM/min) and Km value (μM) for rNanA and rNanB were determined using eight MUNANA concentrations (3.13 to 400 μM) at pH 6.5. After 5 min the reaction was stopped, RFU were measured and converted to 4-MU concentrations according to the 4-MU standard curve. The Enzyme Kinetics Module of SigmaPlot 12.0 (Systat Software, San Jose, CA, USA) was applied to fit the data to the Michaelis–Menten equation using non-linear regression.
(§2) Both rNanA and rNanB were expressed in E. coli and their activity was confirmed by the FL assay at pH 5 (for rNanB only) and pH 6.5 (for both rNanA and rNanB). […] Activities of both recombinant S. pneumoniae NAs were further confirmed under more physiological conditions in a hemagglutination assay (HA assay; [Richter et al., 2015]). […]

[2] = test system: CC(=O)N[C@H]1[C@H]([C@H](O)[C@H](O)CO)O[C@@](Oc2ccc3c(C)cc(=O)oc3c2)(C(=O)O)C[C@@H]1O; assay: as above; assay type: biochemical
Experimental: as §1, §2

[3] = biological target: T2, rNanB (Streptococcus pneumoniae serotype 4, UniProt Q54727); assay: HA assay (hemagglutination of NA-treated human erythrocytes with peanut lectin), inhibition of rNanB; assay type: biochemical, Streptococcus pneumoniae DSM20566; settings: 1 h incubation
T2 construct: encodes a C-terminal 6xHis-tagged NanB in size of 699 amino acid residues; 6xHis (C); made in house; host or cells: E. coli (vector pET-28a, plasmid pTNB20566)
Experimental: (§3) The NAI susceptibility of rNanA and rNanB was evaluated with FL assay (rNanA and rNanB diluted 1:10,000 in FL buffer; pH 6.5) and HA assay as published recently ([Richter et al., 2015]) with slight modification of the HA assay. For stability reasons, rNanA and rNanB were diluted 1:5,000 in phosphate buffered saline (PBS) containing 100 μg/mL bovine serum albumin and stored at –20°C until use. The incubation period of the recombinant proteins with the human erythrocytes was only 1 h. At least three individual experiments were performed.

[4] = test system: A(H1N1)pdm09 influenza virus A/Jena/8178/09; assay: Inhibition of Jena/8178 replication (yield, spread) by NAI in A549 cells in presence of rNanA; assay type: cell-based; settings: for spread and yield of the virus in the presence of NanA: oseltamivir at 1 μM; for Percentage of Virus Yield after NAI Treatment, with rNanA: 48 h after infection, rNanA 1:10,000, untreated control = 100%
Experimental: (§4) Confluent MDCK and A549 cells were mock-infected with test medium or infected with Jena/8178 (0.1 TCID50/cell) for 1 h (37°C; 5% CO2). After three washing steps with test medium, test medium or various rNanA or rNanB dilutions (1:100 to 1:1,000,000) were added. After 48 h at 37°C the supernatant was taken and stored at –20°C until plaque titer determination (virus yield analysis). The remaining cells were fixed with ice-cold methanol for 20 min and stored after washing with PBS in PBS at 4°C until immunocytochemical staining (virus spread analysis).
(§5) To determine the virus yield in collected supernatants, plaque assays were conducted on confluent MDCK cells grown in 12-well tissue culture plates (Greiner Bio-One GmbH). Briefly, after virus adsorption (37°C; 1 h), inoculum was replaced by 1 mL test medium containing also 0.4% agarose and 50 mM magnesium chloride (VEB Laborchemikalien, Apolda, Germany). After 48 h of incubation at 37°C, cells were fixed and stained with a solution of 0.4% crystal violet in a mixture of formalin (3% v/v) and ethanol (1.67% v/v) in water overnight. Plaques were counted over a light box after removal of the agar overlay.
(§6) Virus spread was analyzed by detecting viral nucleoprotein with a monoclonal antibody (Acris GmbH, Hiddenhausen, Germany) by immunocytochemical staining according to the manufacturers protocol (DAKO, Hamburg, Germany; [Bauer et al., 2007]).
(§7) The inhibitory effect of the NAI on Jena/8178 (inhibition of virus yield and spread) was determined in absence and presence of rNanA or rNanB in A549 cells.
(§8) ^a The plaque titer of untreated control (influenzavirus A/Jena/8178/09) reached in A549 cells (48 h after infection) in the absence and presence of rNanA or rNanB was set as 100% virus yield. It was used to calculate the percentage of virus yield after NAI treatment. Mean and standard deviations were calculated of at least three assays with two replicates.

[5] = biological target: T2, rNanB; assay: FL assay (MUNANA), inhibition of rNanB; assay type: biochemical, Streptococcus pneumoniae DSM20566; settings: for Inhibitory Concentration of NAIs against rNanB, FL assay: rNanB diluted 1:10,000, pH 6.5, MUNANA substrate
Experimental: as §1, §3

[6] = test system: A(H1N1)pdm09 influenza virus A/Jena/8178/09; assay: Inhibition of Jena/8178 replication (yield, spread) by NAI in A549 cells, without pneumococcal NA; assay type: cell-based; settings: 48 h after infection, untreated control = 100%
Experimental: as §4, §5, §6, §7, §8

[7] = test system: A(H1N1)pdm09 influenza virus A/Jena/8178/09; assay: Inhibition of Jena/8178 replication (yield, spread) by NAI in A549 cells in presence of rNanB; assay type: cell-based; settings: 48 h after infection, rNanB 1:10,000, untreated control = 100%
Experimental: as §4, §5, §6, §7, §8

[8] = biological target: T3, rNanA (Streptococcus pneumoniae, UniProt P62575); assay: FL assay (MUNANA), inhibition of rNanA; assay type: biochemical, Streptococcus pneumoniae DSM20566
T3 construct: made in house; host or cells: E. coli
Experimental: as §1, §3

[9] = biological target: T3, rNanA; assay: HA assay (hemagglutination of NA-treated human erythrocytes with peanut lectin), inhibition of rNanA; assay type: biochemical, Streptococcus pneumoniae DSM20566; settings: 1 h incubation
Experimental: Neuraminidase activity of both NAs was further confirmed based on hemagglutination of NA-treated human erythrocytes in the presence of peanut lectin (HA assay) as described recently ([Richter et al., 2015]; [Walther et al., 2015]).
as §3

[10] = biological target: Influenza Virus A/Jena/8178/09 Neuraminidase (Influenza A virus (A/Jena/8178/2009(H1N1)), UniProt A0A088CA11); assay: FL assay, inhibition of viral neuraminidase; assay type: biochemical; settings: A/Jena/8178/09 NA; maximum tested concentration 100 μM; read-out: Inhibitory Concentration of NAIs, FL Assay (mean IC50)

T2 sequence (Q54727 30-697): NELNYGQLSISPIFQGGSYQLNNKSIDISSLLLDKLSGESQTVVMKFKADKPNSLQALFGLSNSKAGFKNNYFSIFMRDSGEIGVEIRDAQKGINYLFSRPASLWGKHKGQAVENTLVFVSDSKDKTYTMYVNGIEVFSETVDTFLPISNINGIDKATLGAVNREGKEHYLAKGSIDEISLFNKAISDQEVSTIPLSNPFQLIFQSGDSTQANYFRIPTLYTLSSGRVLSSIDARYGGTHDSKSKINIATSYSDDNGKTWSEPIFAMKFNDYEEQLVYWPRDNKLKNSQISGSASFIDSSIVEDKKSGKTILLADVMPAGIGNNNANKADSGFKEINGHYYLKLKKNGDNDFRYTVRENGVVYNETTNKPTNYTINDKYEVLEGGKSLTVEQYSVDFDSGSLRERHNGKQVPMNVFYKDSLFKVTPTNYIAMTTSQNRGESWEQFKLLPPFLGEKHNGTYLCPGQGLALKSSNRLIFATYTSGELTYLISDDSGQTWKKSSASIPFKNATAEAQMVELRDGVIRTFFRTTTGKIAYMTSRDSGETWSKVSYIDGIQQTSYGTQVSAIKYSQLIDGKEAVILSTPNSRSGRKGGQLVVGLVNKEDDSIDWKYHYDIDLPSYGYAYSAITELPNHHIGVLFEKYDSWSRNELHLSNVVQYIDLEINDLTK
T3 sequence (P62575 54-1035): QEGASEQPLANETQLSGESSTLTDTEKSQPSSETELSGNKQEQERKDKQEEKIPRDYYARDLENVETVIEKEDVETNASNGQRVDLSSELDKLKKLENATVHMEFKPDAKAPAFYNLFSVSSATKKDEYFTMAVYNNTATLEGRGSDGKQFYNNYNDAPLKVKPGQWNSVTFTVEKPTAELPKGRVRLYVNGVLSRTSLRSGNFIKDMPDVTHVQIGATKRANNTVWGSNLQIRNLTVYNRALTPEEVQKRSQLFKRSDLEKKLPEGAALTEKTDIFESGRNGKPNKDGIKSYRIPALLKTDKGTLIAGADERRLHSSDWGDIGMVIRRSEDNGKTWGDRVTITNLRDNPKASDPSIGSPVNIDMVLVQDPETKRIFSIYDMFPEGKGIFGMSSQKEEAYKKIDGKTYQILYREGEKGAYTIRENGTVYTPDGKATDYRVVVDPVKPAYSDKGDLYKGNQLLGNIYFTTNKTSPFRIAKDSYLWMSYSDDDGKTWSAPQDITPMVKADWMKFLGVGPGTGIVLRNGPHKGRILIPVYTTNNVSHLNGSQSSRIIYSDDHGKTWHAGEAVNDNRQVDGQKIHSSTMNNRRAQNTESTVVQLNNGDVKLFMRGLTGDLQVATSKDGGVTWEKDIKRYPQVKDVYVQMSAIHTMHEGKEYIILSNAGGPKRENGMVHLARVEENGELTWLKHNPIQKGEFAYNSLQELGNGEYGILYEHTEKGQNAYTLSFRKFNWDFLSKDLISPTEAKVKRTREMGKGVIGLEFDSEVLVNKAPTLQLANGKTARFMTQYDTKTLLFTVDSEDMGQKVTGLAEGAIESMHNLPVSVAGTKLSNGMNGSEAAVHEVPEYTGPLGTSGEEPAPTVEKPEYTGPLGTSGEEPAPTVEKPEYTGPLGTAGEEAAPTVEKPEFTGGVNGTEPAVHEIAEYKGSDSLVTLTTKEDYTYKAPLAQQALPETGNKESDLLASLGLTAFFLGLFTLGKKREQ

Row | Compound | Inhibitory Concentration of NAIs against rNanB, HA assay [3] | spread and yield of the virus in the presence of NanA ([4]; 48 h) | Percentage of Virus Yield after NAI Treatment, with rNanA ([4]; NAI 10 µM) | Percentage of Virus Yield after NAI Treatment, with rNanA ([4]; NAI 20 µM) | Inhibitory Concentration of NAIs against rNanB, FL assay [5] | Percentage of Virus Yield after NAI Treatment, without NA ([6]; NAI 10 µM) | Percentage of Virus Yield after NAI Treatment, without NA ([6]; NAI 20 µM) | Percentage of Virus Yield after NAI Treatment, with rNanB ([7]; NAI 20 µM) | IC50 [8] | Inhibitory Concentration of NAIs against rNanA, HA assay [9] | further results
1 | CC(=O)N[C@H]1[C@H]([C@H](O)[C@H](O)CO)O[C@@](Oc2ccc3c(C)cc(=O)oc3c2)(C(=O)O)C[C@@H]1O [MUNANA, 2-(4-methylumbelliferyl)-α-D-N-acetylneuraminic acid sodium salt hydrate] |  |  |  |  |  |  |  |  |  |  | Km [1]: 684 µM
2 | rNanA (Streptococcus pneumoniae R6) |  |  |  |  |  |  |  |  |  |  | Km [2]: 39.70 µM
3 | COc1cc2oc(-c3ccc(O)cc3O)c(CC=C(C)C)c(=O)c2c(O)c1/C=C/C(C)C [Artocarpin] | 10.0 ± 0.0 µM | inhibited | 67.3 ± 25.5% | 44.3 ± 11.0% | Not active | 70.2 ± 10.5% | 84.8 ± 15.7% | 77.1 ± 37.8% | 10 ± 6.3 µM | 10.0 ± 0.0 µM | 
4 | CC(=O)N[C@H]1[C@H]([C@H](O)[C@H](O)CO)OC(C(=O)O)=C[C@@H]1O [DANA, N-acetyl-2,3-dehydro-2-deoxyneuraminic acid] |  | inhibited | 81.1 ± 27.9% |  |  | 78.9 ± 36.1% |  |  |  | 100.0 ± 0.0 µM | Percentage of Virus Yield after NAI Treatment, with rNanA ([4]; NAI 50 µM): 13.5 ± 8.3%; Percentage of Virus Yield after NAI Treatment, without NA ([6]; NAI 50 µM): 34.8 ± 17.4%; Percentage of Virus Yield after NAI Treatment, with rNanB ([7]; NAI 50 µM): 27.4 ± 1.0%; IC50 [10]: 3.6 ± 0.4 µM
5 | O=C(CCc1ccccc1)C[C@@H]1C[C@@H](c2ccccc2)c2c(cc(/C=C/c3ccccc3)oc2=O)O1 [Katsumadain A, katsumadain A] | 5.4 ± 4.0 µM | inhibited | 67.3 ± 6.2% | 28.1 ± 13.7% |  | 54.9 ± 25.7% | 29.0 ± 15.1% | 21.0 ± 4.1% |  | 3.2 ± 0.0 µM | 
6 | CC(=O)N[C@H]1[C@H]([C@H](O)[C@H](O)CO)OC(C(=O)O)=C[C@@H]1N=C(N)N [Zanamivir, zanamivir] | Not active |  |  |  | Not active |  |  |  | > 100 µM | Not active | antiviral effect in the presence of rNanA ([4]; 48 h, spread and yield): abolished; Percentage of Virus Yield after NAI Treatment, with rNanA ([4]; NAI 0.1 µM): 109.0 ± 35.5%; Percentage of Virus Yield after NAI Treatment, with rNanA ([4]; NAI 1 µM): 86.5 ± 46.2%; IC50 [5]: > 100 µM; Percentage of Virus Yield after NAI Treatment, without NA ([6]; NAI 0.1 µM): 4.4 ± 1.5%; Percentage of Virus Yield after NAI Treatment, without NA ([6]; NAI 1 µM): 1.4 ± 1.0%; Percentage of Virus Yield after NAI Treatment, with rNanB ([7]; NAI 0.1 µM): 6.2 ± 2.9%; Percentage of Virus Yield after NAI Treatment, with rNanB ([7]; NAI 1 µM): 0.7 ± 0.3%; Inhibitory Concentration of NAIs against rNanA, FL assay ([8]; rNanA diluted 1:10,000, pH 6.5, MUNANA substrate): Not active
